Measurements as given in patent US20250333418A1, “PURINE COMPOUNDS, COMPOSITIONS COMPRISING THEM AND USES THEREOF” (Novo Nordisk A/S, priority 2022, published 2025).

Columns and labels:
[1] = biological target: T1, human CB1 receptor (Homo sapiens, UniProt P21554); assay: bioSensAll GAPL-Gi2 BRET biosensor assay in HEK293 cells transfected with hCB1; test compound added before EC75-80 of agonist CP55,940 (0.1 nM); format: cell-based; conditions: vs CP55,940 0.1 nM (EC75-80), read-out: CB1 wt Gi2 IC50
T1 construct: expressed in transfected cells; host or cells: HEK293
T1 sequence (P21554 whole entry): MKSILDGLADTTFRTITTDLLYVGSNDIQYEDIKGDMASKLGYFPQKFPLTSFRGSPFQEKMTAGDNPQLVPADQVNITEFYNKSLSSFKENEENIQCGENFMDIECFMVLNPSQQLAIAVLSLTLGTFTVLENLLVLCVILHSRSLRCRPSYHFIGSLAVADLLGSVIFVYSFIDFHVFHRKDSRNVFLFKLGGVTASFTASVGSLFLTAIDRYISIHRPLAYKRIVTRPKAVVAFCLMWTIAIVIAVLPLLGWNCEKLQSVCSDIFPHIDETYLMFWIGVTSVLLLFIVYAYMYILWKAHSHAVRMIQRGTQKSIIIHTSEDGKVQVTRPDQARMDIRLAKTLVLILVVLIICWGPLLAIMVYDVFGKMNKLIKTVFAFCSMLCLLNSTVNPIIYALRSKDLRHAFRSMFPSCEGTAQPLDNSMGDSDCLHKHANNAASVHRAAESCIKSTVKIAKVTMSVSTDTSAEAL
Method in brief: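 Test compounds at 12 doses up to 600 nM preceded a 0.1 nM CP55,940 challenge in hCB1/GAPL-Gi2 HEK293 cells. After overnight 37° C incubation, methoxy e-coelenterazine (2 µM final) was added and the 515/400 nm BRET ratio normalized to positive and negative controls.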

[2] = biological target: T1, human CB1 receptor; assay: bioSensAll β-arrestin2 plasma membrane translocation (+GRK2) BRET biosensor assay in HEK293 cells transfected with hCB1; test compound added before EC75-80 of agonist CP55,940 (100 nM); format: cell-based; conditions: βArrestin2 (+GRK2) BRET biosensor, vs CP55,940 100 nM (EC75-80), read-out: CB1 wt βarr2 IC50
Method in brief: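 HEK293 cells co-transfected with hCB1 and β-arrestin2 PM-translocation BRET biosensor (+GRK2); 48 h post-transfection in HBSS, test compound (0–600 nM, 12 points) added 3–5 min before CP55,940 at 100 nM (EC75-80). Overnight incubation at 37 °C; BRET (515/400 nm) read after 2 µM e-coelenterazine Prolume Purple, standardized to controls.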

| IC50 [1] [nM] | IC50 [2] [nM] | SMILES |
| --- | --- | --- |
| 0.801 | 2.56 | CO[C@@H]1CCN(c2nc(N3CCC(C)(C(N)=O)CC3)c3nc(-c4ccccc4Cl)n(-c4ccc(Cl)cc4)c3n2)C1 [Compound 91, 1-[8-(2-chlorophenyl)-9-(4-chlorophenyl)-2-[(3R)-3-methoxypyrrolidin-1-yl]purin-6-yl]-4-methyl-piperidine-4-carboxamide] |
| 0.187 | 1.07 | CN(CCO)c1nc(N2CCC(C)(C(N)=O)CC2)c2nc(-c3ccccc3Cl)n(-c3ccc(Cl)cc3)c2n1 [Compound 19, 1-[8-(2-chlorophenyl)-9-(4-chlorophenyl)-2-[2-hydroxyethyl(methyl)amino]purin-6-yl]-4-methyl-piperidine-4-carboxamide] |
| 50 | 40.1 | CN(C)CCNc1nc(N2CCC(C)(C(N)=O)CC2)c2nc(-c3ccccc3Cl)n(-c3ccc(Cl)cc3)c2n1 [Compound 102, 1-[8-(2-chlorophenyl)-9-(4-chlorophenyl)-2-[2-(dimethylamino)ethylamino]purin-6-yl]-4-methyl-piperidine-4-carboxamide] |
| 0.868 | 21.7 | CC1(C(N)=O)CCN(c2nc(OC[C@@H]3CCCN3)nc3c2nc(-c2ccccc2Cl)n3-c2ccc(Cl)cc2)CC1 [Compound 160, 1-[8-(2-chlorophenyl)-9-(4-chlorophenyl)-2-((2S)-pyrrolidinemethoxy)-purin-6-yl]-4-methyl-piperidine-4-carboxamide] |
| 1.27 | 4.38 | C[C@H](CO)N(C)c1nc(N2CCC(C)(C(N)=O)CC2)c2nc(-c3ccccc3Cl)n(-c3ccc(Cl)cc3)c2n1 [Compound 67, 1-[8-(2-chlorophenyl)-9-(4-chlorophenyl)-2-[[(1R)-2-hydroxy-1-methyl-ethyl]-methyl-amino]purin-6-yl]-4-methyl-piperidine-4-carboxamide] |
| > 5000 | > 5000 | CC1(C(N)=O)CCN(c2nc(C(=O)O)nc3c2nc(-c2ccccc2Cl)n3-c2ccc(Cl)cc2)CC1 [Compound 77, 6-(4-carbamoyl-4-methyl-1-piperidyl)-8-(2-chlorophenyl)-9-(4-chlorophenyl)purine-2-carboxylic acid] |
| 6.91 | 515 | CN(CCO)c1nc(N2CCC(C)(C(N)=O)CC2)c2nc(-c3cncn3C)n(-c3ccc(Cl)cc3)c2n1 [Compound 58, 1-[9-(4-chlorophenyl)-2-[2-hydroxyethyl(methyl)amino]-8-(3-methylimidazol-4-yl)purin-6-yl]-4-methyl-piperidine-4-carboxamide] |
| 3.87 | 14.1 | COC1(C)CN(c2nc(OCC(C)(C)O)nc3c2nc(-c2ccc(C#N)nc2)n3-c2ccc(Cl)cc2)C1 [Compound 114, 5-[9-(4-chlorophenyl)-2-(2-hydroxy-2-methyl-propoxy)-6-(3-methoxy-3-methyl-azetidin-1-yl)purin-8-yl]pyridine-2-carbonitrile] |
| 0.868 | 4.37 | C[C@@H](O)COc1nc(N2CCC(C)(C(N)=O)CC2)c2nc(-c3ccccc3Cl)n(-c3ccc(Cl)cc3)c2n1 [Compound 79, 1-[8-(2-chlorophenyl)-9-(4-chlorophenyl)-2-[(2R)-2-hydroxypropoxy]purin-6-yl]-4-methyl-piperidine-4-carboxamide] |
| 41.2 | 121 | Cc1cn(C)c(-c2nc3c(N4CCC(C)(C(N)=O)CC4)nc(N(C)CCO)nc3n2-c2ccc(Cl)cc2)n1 [Compound 57, 1-[9-(4-chlorophenyl)-8-(1,4-dimethylimidazol-2-yl)-2-[2-hydroxyethyl(methyl)amino]purin-6-yl]-4-methyl-piperidine-4-carboxamide] |
| 7.02 | > 5000 | CC1(C(N)=O)CCN(c2nc(N3CCC[C@@H]3CO)nc3c2nc(-c2ccccc2Cl)n3-c2ccc(Cl)cc2)CC1 [Compound 13, 1-[8-(2-chlorophenyl)-9-(4-chlorophenyl)-2-[(2R)-2-(hydroxymethyl)pyrrolidin-1-yl]purin-6-yl]-4-methyl-piperidine-4-carboxamide] |
| 0.95 | 1.53 | CN(CCO)c1nc(N2CCC(C(F)(F)F)CC2)c2nc(-c3ccccc3Cl)n(-c3ccc(Cl)cc3)c2n1 [Compound 161, 1-[[8-(2-chlorophenyl)-9-(4-chlorophenyl)-6-[4-(trifluoromethyl)-1-piperidyl]purin-2-yl]-methyl-amino]-ethan-2-ol] |
| 0.966 | 13.1 | CC(=O)NCCOc1nc(N2CCC(C(F)(F)F)CC2)c2nc(-c3ccccc3Cl)n(-c3ccc(Cl)cc3)c2n1 [Compound 53, N-[2-[8-(2-chlorophenyl)-9-(4-chlorophenyl)-6-[4-(trifluoromethyl)-1-piperidyl]purin-2-yl]oxyethyl]acetamide] |
| 7.39 | 60.5 | CC1(C(N)=O)CCN(c2nc(N3CCC[C@H]3CO)nc3c2nc(-c2cccc(C#N)c2)n3-c2ccc(Cl)cc2)CC1 [Compound 37, 1-[9-(4-chlorophenyl)-8-(3-cyanophenyl)-2-[(2S)-2-(hydroxymethyl)pyrrolidin-1-yl]purin-6-yl]-4-methyl-piperidine-4-carboxamide] |
| 1.67 | 6.48 | CN(CC(C)(C)O)c1nc(N2CCC(C(F)(F)F)CC2)c2nc(-c3ccccc3Cl)n(-c3ccc(Cl)cc3)c2n1 [Compound 38, 1-[[8-(2-chlorophenyl)-9-(4-chlorophenyl)-6-[4-(trifluoromethyl)-1-piperidyl]purin-2-yl]-methyl-amino]-2-methyl-propan-2-ol] |
| 0.846 | 4.36 | OCCCOc1nc(N2CCC(C(F)(F)F)CC2)c2nc(-c3ccccc3Cl)n(-c3ccc(Cl)cc3)c2n1 [Compound 23, 3-[8-(2-chlorophenyl)-9-(4-chlorophenyl)-6-[4-(trifluoromethyl)-1-piperidyl]purin-2-yl]oxypropan-1-ol] |

Further lines, the compound ahead of its results:

| SMILES | IC50 [1] [nM] | IC50 [2] [nM] |
| --- | --- | --- |
| CCNC1(C(N)=O)CCN(c2nc(OCCO)nc3c2nc(-c2ccccc2Cl)n3-c2ccc(Cl)cc2)CC1 [Compound 142] | 0.892 | 2.6 |
| CC(C)(O)COc1nc(N2C[C@H]3C[C@@H]2CO3)c2nc(-c3ccccc3Cl)n(-c3ccc(Cl)cc3)c2n1 [Compound 203] | 1.39 | 6.49 |
| CC1(C(N)=O)CCN(c2nc(NCCS(C)(=O)=O)nc3c2nc(-c2ccccc2Cl)n3-c2ccc(Cl)cc2)CC1 [Compound 11, 1-[8-(2-chlorophenyl)-9-(4-chlorophenyl)-2-(2-methylsulfonylethylamino)purin-6-yl]-4-methyl-piperidine-4-carboxamide] | 2.01 | 30.1 |
| CCNC1(C(N)=O)CCN(c2nc(N3CCC(CO)C3)nc3c2nc(-c2ccccc2Cl)n3-c2ccc(Cl)cc2)CC1 (centres unmarked) [Compound 153] | 0.503 | 1.29 |
| NC(=O)C1CN(c2nc(N3CCC[C@H]3CO)nc3c2nc(-c2ccccc2Cl)n3-c2ccc(Cl)cc2)C1 [Compound 237] | 0.61 | 1.93 |
| N#Cc1ccc(-c2nc3c(N4CC(C(N)=O)C4)nc(N4CCC[C@H]4CO)nc3n2-c2ccc(Cl)cc2)cn1 [Compound 140] | 1.22 | 8.69 |
| CC1(C(N)=O)CCN(c2nc(OCCCO)nc3c2nc(-c2ccccc2Cl)n3-c2ccc(Cl)cc2)CC1 [Compound 6, 1-[8-(2-chlorophenyl)-9-(4-chlorophenyl)-2-(3-hydroxypropoxy)purin-6-yl]-4-methyl-piperidine-4-carboxamide] | 0.861 | 4.78 |
| COC(=O)N1CCN(c2nc(OCC(C)(C)O)nc3c2nc(-c2ccccc2Cl)n3-c2ccc(Cl)cc2)CC1 [Compound 224] | 1.27 | 7.99 |
| CC1(C(N)=O)CCN(c2nc(-c3cnc[nH]3)nc3c2nc(-c2ccccc2Cl)n3-c2ccc(Cl)cc2)CC1 [Compound 45] | 5.85 | 39.9 |
| C[C@@H]1COCCN1c1nc(OCC(C)(C)O)nc2c1nc(-c1ccccc1Cl)n2-c1ccc(Cl)cc1 [Compound 212] | 2.51 | 25.9 |
| FC(F)(F)C1CCN(c2nc(-c3cc[nH]n3)nc3c2nc(-c2ccccc2Cl)n3-c2ccc(Cl)cc2)CC1 [Compound 39] | 3.29 | 16.4 |
| COC1(C)CN(c2nc(N(C)CCO)nc3c2nc(-c2ccccc2Cl)n3-c2ccc(Cl)cc2)C1 [Compound 76] | 0.51 | 1.18 |
| CC(C)(O)COc1nc(N2CCC(C)(C(=O)O)CC2)c2nc(-c3ccccc3Cl)n(-c3ccc(Cl)cc3)c2n1 [Compound 220] | 3.47 | 23.2 |
| COCCOc1nc(N2CCC(C)(C(N)=O)CC2)c2nc(-c3ccccc3Cl)n(-c3ccc(Cl)cc3)c2n1 [Compound 10, 1-[8-(2-chlorophenyl)-9-(4-chlorophenyl)-2-(2-methoxyethoxy)purin-6-yl]-4-methyl-piperidine-4-carboxamide] | 1.47 | 6.8 |
| CC(=O)N1CCN(c2nc(OCC(C)(C)O)nc3c2nc(-c2ccccc2Cl)n3-c2ccc(Cl)cc2)CC1 [Compound 222] | 1.56 | 7.91 |
| CC(C)(O)COc1nc(NCC(N)=O)c2nc(-c3ccccc3Cl)n(-c3ccc(Cl)cc3)c2n1 [Compound 100] | > 5000 | > 5000 |
| CCOC1(C(N)=O)CCCN(c2nc(OCC(C)(C)O)nc3c2nc(-c2ccccc2Cl)n3-c2ccc(Cl)cc2)C1 (single isomer, unassigned) [Compound 217] | 27 | 73.7 |
| CCNC1(C(N)=O)CCN(c2nc(N(C)CCO)nc3c2nc(-c2ccccc2Cl)n3-c2ccc(Cl)cc2)CC1 [Compound 148] | 1 | 1.49 |
